Data from patent US20210290648A1, “Potentiation of B-Lactam Antibiotics and B-Lactam/B-Lactamase Inhibitor Combinations Against Multidrug and Extensively Drug-Resistant Pseudomonas Aeruginosa Using Non-Ribosomal Tobramycin-Cyclam Conjugates” (University of Manitoba, priority 2018, published 2021).
Converted amounts (≈) assume the structure as drawn. Read-outs that look alike come from different tables or passages of the source.

Tests used:
[1] = system: MRSE CAN-ICU 61589 (CAZ >32); test: MIC, microbroth dilution; assay type: cell-based; settings: standalone
Description: (§1) Antimicrobial Susceptibility Assay. The in vitro antimicrobial activity of all compounds/antibiotics against a panel of bacteria was evaluated by microbroth dilution method in accordance with the Clinical and Laboratory Standards Institute (CLSI) guidelines. Overnight grown bacterial cultures were diluted in saline to achieve a 0.5 McFarland turbidity, followed by 1:50 dilution in Mueller-Hinton broth (MHB) for inoculation to a final concentration of approximately 5×10^5CFU/mL. The antimicrobial agents were 2-fold serially diluted in MHB in a 96-well plate and incubated at 37° C. with equal volumes of inoculum for 18 h. The lowest concentration that prevented the visible growth of bacteria was defined as the MIC for each antimicrobial agent. The broth with or without bacterial cells was used as positive or negative control, respectively.

E. coli ATCC 25922 = test: MIC, microbroth dilution; assay type: cell-based
Description: as §1

MSSE CANWARD-2008 81388 = test: MIC, microbroth dilution; assay type: cell-based; settings: standalone
Description: as §1

[2] = system: human liver carcinoma (HepG2) cells; test: Cytotoxicity, PrestoBlue cell viability assay; assay type: cell-based
Description: Cytotoxicity Assay. Human embryonic kidney cells (HEK293) and HepG2 cells were grown in Dulbecco's modified eagle's medium supplemented with 10% fetal bovine serum in a humidified […] incubator at 37° C. Equal number of cells (100 μl of media containing ˜8000 cells) were dispersed into 96-well plates and wells with medium but no cells were used as blanks. After incubating for 24 h, […] varying concentrations of test compounds (at twice the desired concentrations) were added to each well, including the blanks. The treated cells were then incubated further for 48 h, after which PrestoBlue reagent was added to each well. The plates were then incubated for an additional hour on a nutator mixer in a 5% CO2 incubator. The fluorescence was read at […] on a SpectraMax M2 plate reader (Molecular Devices, USA). Cell viability were interpreted as previously described (55, 77). The values of blank were subtracted from each value, and the viability values of the treated samples relative to the controls with vehicle were calculated. The values for the plots are the means±standard deviation.

K. pneumoniae ATCC 13883 = test: MIC, microbroth dilution; assay type: cell-based, Klebsiella pneumoniae
Description: as §1

P. aeruginosa ATCC 27853 = test: MIC, microbroth dilution; assay type: cell-based, Pseudomonas aeruginosa
Description: as §1

[3] = system: P. aeruginosa CANWARD-2011 96846 (GEN-R, TOB-R); test: MIC, microbroth dilution; assay type: cell-based, Pseudomonas aeruginosa; settings: standalone
Description: as §1

[4] = system: P. aeruginosa CAN-ICU 62308 (GEN-R); test: MIC, microbroth dilution; assay type: cell-based, Pseudomonas aeruginosa; settings: standalone
Description: as §1

WT P. aeruginosa PAO1 = test: Checkerboard combination study / MIC; assay type: cell-based, Pseudomonas aeruginosa
[5] = system: MDR/XDR P. aeruginosa clinical isolates; test: MIC and checkerboard, panel of clinical isolates; assay type: cell-based, Pseudomonas aeruginosa
[6] = system: E. coli CAN-ICU 63074 (AMK 32); test: MIC, microbroth dilution; assay type: cell-based; settings: standalone
Description: as §1

E. faecium ATCC 27270 = test: MIC, microbroth dilution; assay type: cell-based
Description: as §1

[7] = system: E. coli CANWARD-2011 97615 (GEN-R, TOB-R, CIP-R) aac(3′)iia; test: MIC, microbroth dilution; assay type: cell-based
Description: as §1

[8] = system: S. maltophilia CAN-ICU 62584; test: MIC, microbroth dilution; assay type: cell-based
Description: as §1

S. aureus ATCC 29213 = test: MIC, microbroth dilution; assay type: cell-based
Description: as §1

[9] = system: E. coli CAN-ICU 61714 (GEN-R); test: MIC, microbroth dilution; assay type: cell-based; settings: standalone
Description: as §1

E. faecalis ATCC 29212 = test: MIC, microbroth dilution; assay type: cell-based
Description: as §1

MRSA ATCC 33592 = test: MIC, microbroth dilution; assay type: cell-based; settings: standalone
Description: as §1

S. pneumoniae ATCC 49619 = test: MIC, microbroth dilution; assay type: cell-based
Description: as §1

[10] = system: A. baumannii CAN-ICU 63169; test: MIC, microbroth dilution; assay type: cell-based
Description: as §1

[11] = system: panel of Gram-positive and Gram-negative bacteria; test: MIC, panel of Gram-positive and Gram-negative bacteria; assay type: cell-based; settings: standalone; susceptible strains of the panel; read-out: MIC values against susceptible strains
Description: as §1

[12] = system: human embryo kidney (HEK293) cells; test: Cytotoxicity, PrestoBlue cell viability assay; assay type: cell-based; settings: at about 12 μM (6.5 μg/mL), positive control
Description: Cytotoxicity Assay. Human embryonic kidney cells (HEK293) and HepG2 cells were grown in Dulbecco's modified eagle's medium supplemented with 10% fetal bovine serum in a humidified 5% atmospheric incubator at 37° C. […] The fluorescence was read at […] on a SpectraMax M2 plate reader (Molecular Devices, USA). […] The values of blank were subtracted from each value, and the viability values of the treated samples relative to the controls with vehicle were calculated. The values for the plots are the means±standard deviation.

[13] = Pseudomonas aeruginosa, read-out: MIC
[14] = Escherichia coli, read-out: MIC

## 5-O-(Dodecylcyclam)-tobramycin.9HCl [Compound 3]
[1]
  MIC: 32 µg/mL
E. coli ATCC 25922; standalone
  MIC: 64 µg/mL
MSSE CANWARD-2008 81388
  MIC: 16 µg/mL
[2]; highest concentration 50 μM, 48 h
  cell viability: about 60%
K. pneumoniae ATCC 13883; standalone
  MIC: 64 µg/mL

## NC[C@H]1O[C@H](O[C@H]2[C@H](O)[C@@H](O[C@H]3O[C@H](CO)[C@@H](O)[C@H](N)[C@H]3O)[C@H](N)C[C@@H]2N)[C@H](N)C[C@@H]1O [Tobramycin]
P. aeruginosa ATCC 27853; Pseudomonas aeruginosa, ATCC27853, standalone, read-out: MIC
  MIC: 1 µg/mL (≈ 2.14 µM)
[3]; [13]
  MIC: 256 µg/mL (≈ 548 µM)
[4]; [13]
  MIC: 16 µg/mL (≈ 34.2 µM)
WT P. aeruginosa PAO1; Pseudomonas aeruginosa, PAO1, 18 h, antibiotic alone, WT PAO1 (Table 2), read-out: MIC alone
  MIC: 1 µg/mL
WT P. aeruginosa PAO1; antibiotic + compound 1, WT PAO1
  FICI in the presence of ≤10 μM of 1: 1.01
WT P. aeruginosa PAO1; antibiotic + compound 1 ≤10 μM, WT PAO1
  MIC of Antibiotics in the presence of ≤10 μM of 1: 1 µg/mL
WT P. aeruginosa PAO1; antibiotic + compound 2, WT PAO1
  FICI in the presence of ≤10 μM of 2: 1.00
WT P. aeruginosa PAO1; antibiotic + compound 2 ≤10 μM, WT PAO1
  MIC of Antibiotics in the presence of ≤10 μM of 2: 1 µg/mL
WT P. aeruginosa PAO1; antibiotic + compound 3, WT PAO1
  FICI in the presence of ≤10 μM of 3: 1.01
WT P. aeruginosa PAO1; antibiotic + compound 3 ≤10 μM, WT PAO1
  MIC of Antibiotics in the presence of ≤10 μM of 3: 1 µg/mL
WT P. aeruginosa PAO1; antibiotic + compounds 1-3 at ≤10 μM (≤16 μg/mL), WT PAO1
  FICI with compounds 1-3: 1
WT P. aeruginosa PAO1; tobramycin + aztreonam or meropenem, WT
  FICI with aztreonam or meropenem: 0.75-1.00
[5]; tobramycin-resistant MDR/XDR isolates
  FICI with aztreonam or meropenem: 0.56-0.75
[5]; tobramycin-susceptible MDR
  FICI with aztreonam or meropenem: 0.75
[6]; [14]
  MIC: 8 µg/mL (≈ 17.1 µM)
E. faecium ATCC 27270; Enterococcus faecium, ATCC27270, standalone, read-out: MIC
  MIC: 16 µg/mL (≈ 34.2 µM)
[1]; Staphylococcus epidermidis, read-out: MIC
  MIC: 2 µg/mL (≈ 4.28 µM)
[7]; Escherichia coli
  MIC: 128 µg/mL (≈ 274 µM)
[8]; Stenotrophomonas maltophilia, CANICU62584, standalone, read-out: MIC
  MIC: > 512 µg/mL
S. aureus ATCC 29213; Staphylococcus aureus, ATCC29213, standalone, read-out: MIC
  MIC: 0.5 µg/mL (≈ 1.07 µM)
[9]; [14]
  MIC: 8 µg/mL (≈ 17.1 µM)
E. faecalis ATCC 29212; Enterococcus faecalis, ATCC29212, standalone, read-out: MIC
  MIC: 8 µg/mL (≈ 17.1 µM)
E. coli ATCC 25922; Escherichia coli, ATCC25922, standalone, read-out: MIC
  MIC: 0.5 µg/mL (≈ 1.07 µM)
MRSA ATCC 33592; Staphylococcus aureus, read-out: MIC
  MIC: 0.5 µg/mL (≈ 1.07 µM)
MSSE CANWARD-2008 81388; read-out: MIC
  MIC: ≤ 0.25 µg/mL
S. pneumoniae ATCC 49619; Streptococcus pneumoniae, ATCC49619, standalone, read-out: MIC
  MIC: 2 µg/mL (≈ 4.28 µM)
[10]; Acinetobacter baumannii, CANICU63169, standalone, read-out: MIC
  MIC: 32 µg/mL (≈ 68.4 µM)
K. pneumoniae ATCC 13883; Klebsiella pneumoniae, ATCC13883, standalone, read-out: MIC
  MIC: ≤ 0.25 µg/mL
[11]
  MIC: ≤ 2 µg/mL

## COc1cccc2c1C(=O)c1c(O)c3c(c(O)c1C2=O)C[C@@](O)(C(=O)CO)C[C@@H]3O[C@H]1C[C@H](N)[C@H](O)[C@H](C)O1 [Doxorubicin]
[12]
  cytotoxicity of cells reduced to: less than 10%
[2]; at about 12 μM (6.5 μg/mL), positive control
  cell viability: less than 10%

## NCC1OC(OC2C(N)CC(N)C(OC3OC(CO)C(O)C(N)C3O)C2OCCCCN2CCCNCCNCCCNCC2)C(N)CC1O.O=C(O)C(F)(F)F.O=C(O)C(F)(F)F.O=C(O)C(F)(F)F.O=C(O)C(F)(F)F.O=C(O)C(F)(F)F.O=C(O)C(F)(F)F.O=C(O)C(F)(F)F.O=C(O)C(F)(F)F.O=C(O)C(F)(F)F (centres unmarked) [Compound 1, 5-O-(Butylcyclam)-tobramycin.9TFA]
P. aeruginosa ATCC 27853; standalone
  MIC: >128 µg/mL
[3]
  MIC: >128 µg/mL
[4]
  MIC: >128 µg/mL
[6]
  MIC: >128 µg/mL
E. faecium ATCC 27270; standalone
  MIC: >128 µg/mL
[1]
  MIC: 64 µg/mL
[7]; standalone, E. coli CANWARD-2011 97615 (GEN-R, TOB-R, CIP-R)
  MIC: >128 µg/mL
[8]; standalone
  MIC: >128 µg/mL
S. aureus ATCC 29213; standalone
  MIC: 64 µg/mL
[9]
  MIC: 128 µg/mL
E. faecalis ATCC 29212; standalone
  MIC: >128 µg/mL
E. coli ATCC 25922; standalone
  MIC: 64 µg/mL
MRSA ATCC 33592
  MIC: 64 µg/mL
MSSE CANWARD-2008 81388
  MIC: 16 µg/mL
S. pneumoniae ATCC 49619; standalone
  MIC: >128 µg/mL
[10]; standalone
  MIC: >128 µg/mL
K. pneumoniae ATCC 13883; standalone
  MIC: 32 µg/mL
